# Reference: patent publication US20190231785A1, “PHOSPHODIESTERASE INHIBITOR TREATMENT” (Cyrano Therapeutics, Inc., priority 2012, published 2019)
# Tested on: asthmatic patients
# Test: sGaw after dry powder inhalation, dose escalating single blind study (Examples 5 and 6)
# Settings: 1 mg IBMX
# Procedure: (§1) To test this theory, asthmatic patients are enrolled in a dose escalating single blind study. On arrival to the clinic, subjects are allowed to rest for 20 minutes before baseline measurements of FEV1 (six recordings) and sGaw (five recordings) are made. Subjects receive a dry powder dispenser loaded with a dose of 2 mg theophylline or a dry powder carrier. […] After each inhalation, measurements of sGaw are made at 1, 3, 5, 10, 15, 20, 25, and 30 minutes.
# On completion of the last recording, subjects inhale a 200 μg dose of salbutamol from a metered inhaler and a further measurement of sGaw is made after 15 minutes. Subjects are also monitored for coughing and are questioned about the taste of the drug.
# as §1, with “Asthmatic patients” for “To test this theory, asthmatic patients”, “of 1” for “of 2”, “mg IBMX formulated as a dry powder” for “mg theophylline”
# On completion of the last recording, subjects inhale a 200 μg dose of salbutamol from a metered inhaler and a further measurement of sGaw mad after 15 minutes. Subjects are also be monitored for coughing and are questioned about the taste of the drug.
structure (smiles),measurement,value
"CC(C)Cn1c(=O)n(C)c(=O)c2[nH]cnc21 [IBMX, 3-isobutyl-1-methylxanthine]",increase in sGaw compared with 200 μg salbutamol,comparable with that produced by salbutamol
same,sGaw above the baseline measurement after 30 minutes,20%
same,time until sGaw baseline is reached,one and a half
